Data: patent US9090600B2, “Fungicidal 4-substituted-3-{phenyl[(heterocyclylmethoxy)imino]methyl}-1,2,4-oxadizol-5(4H)-one derivatives” (BAYER INTELLECTUAL PROPERTY GMBH, priority 2011, dated 2015)
Marks after values point to notes of the source that are not given here.

Experiments:
Plasmopara viticola = experiment: Plasmopara test (grapevines)/preventive; type: in vivo; conditions: preventive spray, 10 ppm of active ingredient, evaluated 6 days after inoculation
Experimental: Solvent: 24.5 parts by weight of acetone • 24.5 parts by weight of dimethylacetamide
Emulsifier: 1 part by weight of alkylaryl polyglycol ether
To produce a suitable preparation of active compound, 1 part by weight of active compound is mixed with the stated amounts of solvent and emulsifier, and the concentrate is diluted with water to the desired concentration.
To test for preventive activity, young plants are sprayed with the preparation of active compound at the stated rate of application. After the spray coating has dried on, the plants are inoculated with an aqueous spore suspension of Plasmopara viticola and then remain for 1 day in an incubation cabinet at approximately 20° C. and a relative atmospheric humidity of 100%. The plant is subsequently placed for 4 days in a greenhouse at approximately 21° C. and a relative atmospheric humidity of approximately 90%. The plants are then misted and placed for 1 day in an incubation cabinet.
The test is evaluated 6 days after the inoculation. 0% means an efficacy which corresponds to that of the untreated control, while an efficacy of 100% means that no disease is observed.

Phytophthora infestans = type: in vivo; conditions: tomato plants, spray, 500 ppm, grading 5 days after contamination
[1] = pH 2.7

Structure (SMILES) | Eff. % (Plasmopara viticola) | Eff. % (Phytophthora infestans) | LogP [1]
CCCCC(CC)C(=O)Nc1cccc(CO/N=C(/c2ccccc2)c2noc(=O)n2C)n1 (centres unmarked) [Example 284] | 79% | 95% | 4.49 [a]
Cn1c(/C(=N\OCc2cccc(NC(=O)c3ccc(Cl)c(Cl)c3)n2)c2ccccc2)noc1=O [Example 352] | 79% | 100% | 4.54 [a]
C#CCCCC(=O)Nc1cccc(CO/N=C(/c2ccccc2)c2noc(=O)n2C)n1 [Example 302] | 92% | 100% | 3.17 [a]
Cn1c(C(=NOCc2cccc(NC(=O)c3ccc(Cl)cc3)n2)c2ccccc2)noc1=O [Example 245] | 93% | – | 4.01 [a]
Cn1c(/C(=N\OCc2cccc(NC(=O)CCC3CCC3)n2)c2ccccc2)noc1=O [Example 389] | 100% | 99% | 4.02 [a]
Cn1c(/C(=N\OCc2csc(NC(=O)COc3cccc(F)c3)n2)c2ccccc2)noc1=O [Example 100] | 74% | – | 3.58 [a]
CC(C)CCC(=O)Nc1cccc(CO/N=C(/c2ccccc2)c2noc(=O)n2C)n1 [Example 102] | 91% | 100% | 3.85 [a]
CC(Oc1cccc(Cl)c1)C(=O)Nc1nc(CO/N=C(/c2ccccc2)c2noc(=O)n2C)cs1 (centres unmarked) [Example 321] | 82% | 97% | 4.1 [a]
Cn1c(/C(=N\OCc2cccc(NC(=O)c3cccc(Br)c3)n2)c2ccccc2)noc1=O [Example 380] | 95% | 93% | 4.16 [a]
C#CCCOC(=O)Nc1cccc(CO/N=C(/c2cccc(C)c2)c2noc(=O)n2C)n1 [Example 343] | 95% | 100% | 3.59 [a]
Cc1ccc(C)c(C(=O)Nc2cccc(CO/N=C(/c3ccccc3)c3noc(=O)n3C)n2)c1 [Example 327] | 95% | 100% | 4.06 [a]
Cn1c(/C(=N\OCc2cccc(NC(=O)CCCCCl)n2)c2ccccc2)noc1=O [Example 404] | 87% | 98% | 3.44 [a]
COc1cccc(OCC(=O)Nc2cccc(CO/N=C(/c3ccccc3)c3noc(=O)n3C)n2)c1 [Example 51] | 91% | – | 3.73 [a]
Cn1c(/C(=N\OCc2cccc(NC(=O)C(F)(F)Oc3ccccc3)n2)c2ccccc2)noc1=O [Example 307] | 98% | – | 4.08 [a]
Cn1c(/C(=N\OCc2csc(NC(=O)COC3CCCC3)n2)c2ccccc2)noc1=O [Example 195] | 95% | – | 3.73 [a]
Cn1c(C(=NOCc2cccc(NCC3CCCCC3)n2)c2ccccc2)noc1=O [Example 116] | 93% | – | 3.02 [a]
CCCCC(C)(C)C(=O)Nc1cccc(CO/N=C(/c2ccccc2)c2noc(=O)n2C)n1 [Example 316] | 84% | – | 4.63 [a]
COc1ccccc1C(=O)Nc1nc(CO/N=C(/c2ccccc2)c2noc(=O)n2C)cs1 [Example 91] | – | 85% | 3.71 [a]
CCCCCCCCCC(=O)Nc1cccc(CO/N=C(/c2ccccc2)c2noc(=O)n2C)n1 [Example 303] | – | 98% | 5.54 [a]
Cc1ccc(C(=O)Nc2cccc(CO/N=C(/c3ccccc3)c3noc(=O)n3C)n2)cc1 [Example 144] | – | 95% | 3.85 [a]
Cn1c(/C(=N\OCc2cccc(NC(=O)CC3CC4CCC3C4)n2)c2ccccc2)noc1=O (centres unmarked) [Example 78] | – | 100% | 4.39 [a]
Cn1c(/C(=N\OCc2cccc(NC(=O)Cc3ccccc3Br)n2)c2ccccc2)noc1=O [Example 335] | – | 99% | 3.85 [a]
Cc1ccc(OCC(=O)Nc2cccc(CO/N=C(/c3ccccc3)c3noc(=O)n3C)n2)cc1 [Example 296] | 74% | – | 4.07 [a]
